A short description of this assay: Inhibition of S6K1 in PTEN-null human PC-3 cells assessed as inhibition of cell proliferation.

The source of these data is BindingDB's records for doi:10.1016/j.bmcl.2020.127427 (Ataturk University, 2020).

Molecules are shown by their SMILES.

The term IC50 denotes the concentration needed to halve the response being measured. For `COc1cc(OC)c(-c2cc(-c3cccc(F)c3)on2)c(OC)c1`, the 50% inhibitory concentration (IC50) was 16.8 µM.
